{"source": "patent US20210275511A1", "about": "“METHYLPHENIDATE COMPOSITIONS FOR TREATMENT OF ATTENTION DEFICIT HYPERACTIVITY DISORDER” (Ironshore Pharmaceuticals & Development, Inc., priority 2019, published 2021)", "system": "SKAMP scores in children aged 6-12 with attention deficit hyperactivity disorder (ADHD)", "test": "Population PK/PD model of SKAMP scores (Study HLD200-107, laboratory classroom)", "format": "in vivo, human", "details": "FIG. 37", "description": "PD data. The clinical data used in this analysis were the SKAMP scores collected in a Phase 3 (HLD200-107 study), multicenter, open-label treatment-optimized, double-blind, randomized, placebo-controlled, forced-withdrawal, parallel group study to evaluate the safety and efficacy of evening dosed HLD200, a novel delayed and extended release formulation (DELEXIS) of methylphenidate hydrochloride, in children aged 6-12 with attention deficit hyperactivity disorder (ADHD) in a laboratory classroom setting.\nPK/PD model development. In this study, no MPH samples were collected. Therefore the individual exposure, used in the PK/PD analysis were estimated based on the outcomes of population PK model and on the individual demographic (weight and gender) covariate values.\nThe model included a parametric description of the trajectories of SKAMP scores for placebo and HLD200 treatments. […]\nExamples 10 to 15 relate to PK/PD analysis results. […] In the first step, the individual MPH concentrations were derived using the population PK model previously developed jointly with the individual demographic data and the individual HLD200 dosing history, then the placebo data were modelled, and finally the SKAMP scores were analyzed by fixing the placebo and the PK exposure values previously estimated. […]", "data": [{"smiles": "COC(=O)C(c1ccccc1)C1CCCCN1", "note": "(stereo not shown) [MPH, methylphenidate]", "values": [{"measurement": "Drug concentration required to induce a change from placebo of ~40%", "result": "~15", "unit": "ng/mL"}]}]}
